# Publication PMC7848139, “Novel Hybrid CHC from β-carboline and N-Hydroxyacrylamide Overcomes Drug-Resistant Hepatocellular Carcinoma by Promoting Apoptosis, DNA Damage, and Cell Cycle Arrest” (Frontiers in Pharmacology, 2021)
# Assays:
# Bel7402/5-FU xenografts = test: In vivo tumor growth inhibition, Bel7402/5-FU xenograft; set-up: species or system BALB/c nude mice; settings: 70 μmol/kg, intraperitoneal daily, 21 days, n = 6; saline group 1.47 ± 0.21 g
# Method: All animal experimental protocols were approved by the Animal Research and Care Committee of Nantong University. Female BALB/c nude mice at 5∼6 week-old were subcutaneously implanted with 1×10^6 Bel7402/5-FU cells. […] The body mass and tumor size of nude mice were surveyed every three days during the 21 days study. Tumor size (mm^3) of nude mice was determined using the formula: tumor size = ½ (Length×Width^2). Finally, these tumor-bearing mice were sacrificed, and their tumors were removed and weighed at the end of the 21 days.
# Data (means ± SD) were from tumor volumes or weight of each group of mice (n = 6 per group). *p < 0.01 vs. control group.
# CT-DNA = test: UV-visible spectroscopy titrations with CT DNA; format: binding, calf; settings: 20 μM compound, equal increments of CT-DNA, 25°C
# Method: The ultraviolet spectrophotometer (UV2500, Shimadzu, Tokyo, Japan) recorded UV–visible spectroscopy under titrations at 25°C. Tris buffer (5 mM) was used to prepare Stock solutions of CT DNA (20 μM, calf thymus DNA) comprising ideal structure of double stranded DNA. Dissolving synthesized derivative in 1:1000 DMSO/Milli Q water to prepare stock solutions of them (20 μM). UV–visible absorption titrations were carried out with addition of 100 μl CT DNA solution to 4 ml solution of tested compound in quartz cuvette each time interval. Until the absorption band of complex containing synthesized derivative and CT DNA kept at a stable wavelength after adding CT DNA successfully for five times, titrations were finished. Finally, spectrophotometer noted the absorption spectra (250–500 nm).
# FIGURE 7 UV-visible absorption spectra of CHC after adding equal amounts of CT DNA. Arrows indicate changes in absorbance with increasing concentrations of DNA [CHC] = 20 μM.
# Bel7402/5-FU cells = test: Cell apoptosis analysis by flow cytometry; format: cell-based, human; settings: 5.0 μM, 72 h
# Method: Briefly, Bel7402/5-FU cells were cultured in DMEM at 37°C with 5% CO2 for 12 h. […] Then Bel7402/5-FU cells were collected and using APC-Annexin V and 7-AAD to stain these cells under the condition of 37°C for 15 min. Flow cytometry analysis (Calibur, BD, United States) decide the percentage of apoptotic cells according to APC signal (FL4) (excitation wavelength at 633 nm; emission wavelength at 660 nm) and 7-AAD staining signal (FL3) (excitation wavelength at 488 nm; emission wavelength at 647 nm). WinList 3D (7.1) analyzed the data and Excel 2016 plotted the histogram.
# FIGURE 5 CHC causes apoptosis of Bel7402/5-FU cells. […] The data (mean ± SD, percentage of apoptotic cells) represent the average of three separate experiments. *p < 0.01 vs. control.
# HCT116 = test: MTT antiproliferative assay, HCT116; format: cell-based; settings: Homo sapiens, HCT-116, 72 h, mean ± SD of three experiments, read-out: In vitro antiproliferative activity (IC50) HCT116
# Method: (§1) Briefly, appropriate cells (1 × 10^4 cells/mL) were placed into 96-well plates in 100 μL of DMEM medium overnight. Then adding 100 μL of evaluated compounds into individual well for 72 h while 0.1% DMSO aqueous solution was treated as the negative control. After incubation with 30 μl MTT (5 mg/mL) for 4 h in all well, and ELISA plate reader measured absorbance of each well at 570 nm. Then calculating cytotoxicity effect of evaluated compounds through the formula: Cell inhibitory percentage (%) = (1−OD of treatment group/OD of control) × 100%.
# SMMC-7721 = test: MTT antiproliferative assay, SMMC-7721; format: cell-based; settings: Homo sapiens, 72 h, mean ± SD of three experiments, read-out: In vitro antiproliferative activity (IC50) SMMC-7721
# Method: as §1
# Huh7 = test: MTT antiproliferative assay, Huh7; format: cell-based; settings: Homo sapiens, Huh-7, 72 h, mean ± SD of three experiments, read-out: In vitro antiproliferative activity (IC50) Huh7
# Method: as §1
compound,measurement,setting,value
"O=C(CCCCCCC(=O)Nc1ccccc1)NO [SAHA, Vorinostat, reference compound]",tumor mass at end of treatment,Bel7402/5-FU xenografts,0.76 ± 0.11 g
same,change of UV-visible absorption upon adding CT-DNA,CT-DNA,slightly increased
same,rate of Annexin V+ Bel7402/5-FU cellular apoptosis,Bel7402/5-FU cells,30.8%
"COc1ccc2c(c1)[nH]c1c(C)nccc12 [Harmine, harmine, reference compound]",IC50,HCT116,43.8 ± 3.85 µM
same,IC50,SMMC-7721,47.6 ± 5.12 µM
same,IC50,Huh7,41.9 ± 5.06 µM
